According to patent US11254668B2, “Pyrazolo[1,5-A]pyrazin-4-yl and related derivatives” (Pfizer Inc., priority 2017, dated 2022):

Key:
Type in all cases: biochemical
[1] = biological target: JAK1 (Homo sapiens (Human), UniProt P23458); test: JAK Caliper Enzyme Assay at 1 mM ATP, JAK1
Outline: (§1)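 Recombinant human kinase domains phosphorylated a fluorescent synthetic peptide at room temperature, with enzyme level and time tuned to 20% to 30% conversion; EDTA stop buffer ended reactions. Mobility-shift separation gave percent product from peak heights, normalised to DMSO and positive controls, and IC50s came from concentration–effect curves.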

[2] = biological target: TYK2 (Homo sapiens (Human), UniProt P29597); test: JAK Caliper Enzyme Assay at 1 mM ATP, TYK2
Outline: (§2)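 Read-out is Caliper LabChip mobility-shift separation of phosphorylated from unphosphorylated fluorescent peptide after EDTA termination. Each JAK kinase domain (human, recombinant) runs at 1 mM ATP at room temperature, adjusted for 20–30% turnover. Inhibition is normalized to DMSO and positive-control wells and plotted against concentration.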

[3] = biological target: JAK3 (Homo sapiens (Human), UniProt P52333); test: JAK Caliper Enzyme Assay at 1 mM ATP, JAK3
Outline: as §1

[4] = biological target: JAK2 (Homo sapiens (Human), UniProt O60674); test: JAK Caliper Enzyme Assay at 1 mM ATP, JAK2
Outline: as §2

Chain of JAK1 (P23458 875-1153): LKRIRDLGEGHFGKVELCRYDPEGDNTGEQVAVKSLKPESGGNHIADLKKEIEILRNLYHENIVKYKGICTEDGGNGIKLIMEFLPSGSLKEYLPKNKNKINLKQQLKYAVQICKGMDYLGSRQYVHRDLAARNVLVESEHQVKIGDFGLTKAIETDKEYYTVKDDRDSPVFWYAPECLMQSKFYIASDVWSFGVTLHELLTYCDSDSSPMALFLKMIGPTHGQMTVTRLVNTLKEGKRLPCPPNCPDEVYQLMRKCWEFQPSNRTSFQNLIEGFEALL
Chain of JAK2 (O60674 849-1124): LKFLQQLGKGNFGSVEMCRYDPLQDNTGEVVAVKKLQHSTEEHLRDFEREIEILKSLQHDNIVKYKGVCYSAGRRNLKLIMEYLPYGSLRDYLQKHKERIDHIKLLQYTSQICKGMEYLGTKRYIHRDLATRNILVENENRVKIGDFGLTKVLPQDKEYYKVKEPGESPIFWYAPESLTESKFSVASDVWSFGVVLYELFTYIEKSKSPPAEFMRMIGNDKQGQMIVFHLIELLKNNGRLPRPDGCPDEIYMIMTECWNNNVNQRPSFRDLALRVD
Chain of TYK2 (P29597 897-1176): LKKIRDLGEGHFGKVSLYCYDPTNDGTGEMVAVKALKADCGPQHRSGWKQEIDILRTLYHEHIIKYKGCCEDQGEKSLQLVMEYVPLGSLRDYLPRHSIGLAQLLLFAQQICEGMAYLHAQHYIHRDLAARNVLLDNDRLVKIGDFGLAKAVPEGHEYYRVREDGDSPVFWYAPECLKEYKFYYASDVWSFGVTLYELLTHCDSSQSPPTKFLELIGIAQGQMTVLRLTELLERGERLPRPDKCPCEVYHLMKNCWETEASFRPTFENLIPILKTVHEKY
Chain of JAK3 (P52333 822-1111): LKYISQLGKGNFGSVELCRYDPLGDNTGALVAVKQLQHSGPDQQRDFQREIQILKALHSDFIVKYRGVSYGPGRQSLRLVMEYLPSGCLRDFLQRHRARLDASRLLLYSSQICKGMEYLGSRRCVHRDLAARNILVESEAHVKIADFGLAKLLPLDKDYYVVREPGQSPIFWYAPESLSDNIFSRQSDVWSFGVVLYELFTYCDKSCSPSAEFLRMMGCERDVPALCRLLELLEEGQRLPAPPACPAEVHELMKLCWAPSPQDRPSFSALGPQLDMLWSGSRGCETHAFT

IC50 [1] [nM]	IC50 [2] [nM]	IC50 [3] [nM]	IC50 [4] [nM]	Structure (SMILES)
6660	110	> 10000	391	CO[C@H]1C[C@@](CC#N)(n2ccc(-c3nc(-c4cnn(C5COC5)c4)cc4ncccc34)n2)C1 [Example 122, [cis-3-methoxy-1-(3-{7-[1-(oxetan-3-yl)-1H-pyrazol-4-yl]-1,6-naphthyridin-5-yl}-1H-pyrazol-1-yl)cyclobutyl]acetonitrile]
744	21	9660	54	CS(=O)(=O)N1CC(CC#N)(n2ccc(-c3nc(-c4cnn([C@H]5CCOC5)c4)cc4ncccc34)n2)C1 [Example 123, {1-(methylsulfonyl)-3-[3-(7-{1-[(3S)-tetrahydrofuran-3-yl]-1H-pyrazol-4-yl}-1,6-naphthyridin-5-yl)-1H-pyrazol-1-yl]azetidin-3-yl}acetonitrile]
715	27	9880	68	CS(=O)(=O)N1CC(CC#N)(n2ccc(-c3nc(-c4cnn([C@@H]5CCOC5)c4)cc4ncccc34)n2)C1 [Example 124, {1-(methylsulfonyl)-3-[3-(7-{1-[(3R)-tetrahydrofuran-3-yl]-1H-pyrazol-4-yl}-1,6-naphthyridin-5-yl)-1H-pyrazol-1-yl]azetidin-3-yl}acetonitrile]
965	33	> 10000	162	CS(=O)(=O)N1CC(CC#N)(n2ccc(-c3nc(-c4cnn(CCO)c4)cc4ncccc34)n2)C1 [Example 125, [3-(3-{7-[1-(2-hydroxyethyl)-1H-pyrazol-4-yl]-1,6-naphthyridin-5-yl}-1H-pyrazol-1-yl)-1-(methylsulfonyl)azetidin-3-yl]acetonitrile]
583	41	> 10000	119	N#CC[C@]1(n2ccc(-c3nc(-c4cnn(CCO)c4)cc4ncccc34)n2)C[C@H](C#N)C1 [Example 126, trans-3-(cyanomethyl)-3-(3-{7-[1-(2-hydroxyethyl)-1H-pyrazol-4-yl]-1,6-naphthyridin-5-yl}-1H-pyrazol-1-yl)cyclobutanecarbonitrile]
64	17	1050	20	N#CC[C@]1(n2ccc(-c3nc(-c4cnn(CCO)c4)cc4ncccc34)n2)C[C@@H](C#N)C1 [Example 127, cis-3-(cyanomethyl)-3-(3-{7-[1-(2-hydroxyethyl)-1H-pyrazol-4-yl]-1,6-naphthyridin-5-yl}-1H-pyrazol-1-yl)cyclobutanecarbonitrile]
3530	115	> 10000	620	CO[C@H]1C[C@@](CC#N)(n2ccc(-c3nc(-c4cnn(CCO)c4)cc4ncccc34)n2)C1 [Example 128, [cis-1-(3-{7-[1-(2-hydroxyethyl)-1H-pyrazol-4-yl]-1,6-naphthyridin-5-yl}-1H-pyrazol-1-yl)-3-methoxycyclobutyl]acetonitrile]
5920	133	> 10000	1230	CO[C@H]1C[C@](CC#N)(n2ccc(-c3nc(-c4cnn(CCO)c4)cc4ncccc34)n2)C1 [Example 129, [trans-1-(3-{7-[1-(2-hydroxyethyl)-1H-pyrazol-4-yl]-1,6-naphthyridin-5-yl}-1H-pyrazol-1-yl)-3-methoxycyclobutyl]acetonitrile]
232	32	9520	63	CS(=O)(=O)N1CC(CC#N)(n2ccc(-c3nc(-c4cnn(C(CO)CCl)c4)cc4ncccc34)n2)C1 (centres unmarked) [Example 130, [3-(3-{7-[1-(1-chloro-3-hydroxypropan-2-yl)-1H-pyrazol-4-yl]-1,6-naphthyridin-5-yl}-1H-pyrazol-1-yl)-1-(methylsulfonyl)azetidin-3-yl]acetonitrile]
619	22	9120	70	CS(=O)(=O)N1CC(CC#N)(n2ccc(-c3nc(-c4cnn(CC5COC5)c4)cc4ncccc34)n2)C1 [Example 132, [1-(methylsulfonyl)-3-(3-{7-[1-(oxetan-3-ylmethyl)-1H-pyrazol-4-yl]-1,6-naphthyridin-5-yl}-1H-pyrazol-1-yl)azetidin-3-yl]acetonitrile]
> 10000	685	> 10000	> 10000	Cn1ncc(-c2cc3ncccc3c(-c3ccn(C4(CC#N)CN(S(C)(=O)=O)C4)n3)n2)c1C(N)=O [Example 134, 4-(5-{1-[3-(cyanomethyl)-1-(methylsulfonyl)azetidin-3-yl]-1H-pyrazol-3-yl}-1,6-naphthyridin-7-yl)-1-methyl-1H-pyrazole-5-carboxamide]
489	20	2020	34	Cn1cc(-c2cc3ncccc3c(-c3ccn([C@]4(CC#N)C[C@@H](C#N)C4)n3)n2)c(CO)n1 [Example 135, trans-3-(cyanomethyl)-3-(3-{7-[3-(hydroxymethyl)-1-methyl-1H-pyrazol-4-yl]-1,6-naphthyridin-5-yl}-1H-pyrazol-1-yl)cyclobutanecarbonitrile]
618	44	> 10000	260	Cn1ncc(-c2cc3ncccc3c(-c3ccn([C@]4(CC#N)C[C@@H](C#N)C4)n3)n2)c1CO [Example 136, trans-3-(cyanomethyl)-3-(3-{7-[5-(hydroxymethyl)-1-methyl-1H-pyrazol-4-yl]-1,6-naphthyridin-5-yl}-1H-pyrazol-1-yl)cyclobutanecarbonitrile]

More lines, now with the values behind:

Structure (SMILES)	IC50 [1] [nM]	IC50 [2] [nM]	IC50 [3] [nM]	IC50 [4] [nM]
CNS(=O)(=O)N1CC(CC#N)(n2ccc(-c3nc(-c4cnn(C)c4)cc4ncccc34)n2)C1 [Example 109, 3-(cyanomethyl)-N-methyl-3-{3-[7-(1-methyl-1H-pyrazol-4-yl)-1,6-naphthyridin-5-yl]-1H-pyrazol-1-yl}azetidine-1-sulfonamide]	2370	68	> 10000	378
CO[C@H]1C[C@@](CC#N)(n2ccc(-c3nc(-c4cnn(C)c4)cc4ncccc34)n2)C1 [Example 110, (cis-3-methoxy-1-{3-[7-(1-methyl-1H-pyrazol-4-yl)-1,6-naphthyridin-5-yl]-1H-pyrazol-1-yl}cyclobutyl)acetonitrile]	4110	61	> 10000	558
CCn1cc(-c2cc3ncccc3c(-c3ccn(C4(CC#N)CN(CC(F)(F)F)C4)n3)n2)cn1 [Example 111, [3-{3-[7-(1-ethyl-1H-pyrazol-4-yl)-1,6-naphthyridin-5-yl]-1H-pyrazol-1-yl}-1-(2,2,2-trifluoroethyl)azetidin-3-yl]acetonitrile]	458	27	9060	139
CN(C)CCn1cc(-c2cc3ncccc3c(-c3ccn([C@]4(CC#N)C[C@H](C#N)C4)n3)n2)cn1 [Example 114, cis-3-(cyanomethyl)-3-[3-(7-{1-[2-(dimethylamino)ethyl]-1H-pyrazol-4-yl}-1,6-naphthyridin-5-yl)-1H-pyrazol-1-yl]cyclobutanecarbonitrile]	404	46	1170	41
N#CCC1(n2ccc(-c3nc(-c4cnn(C5CNC5)c4)cc4ncccc34)n2)CN(CC(F)(F)F)C1 [Example 115, [3-(3-{7-[1-(azetidin-3-yl)-1H-pyrazol-4-yl]-1,6-naphthyridin-5-yl}-1H-pyrazol-1-yl)-1-(2,2,2-trifluoroethyl)azetidin-3-yl]acetonitrile]	7060	120	> 10000	327
N#CCC1(n2ccc(-c3nc(-c4cnn(C5CCNCC5)c4)cc4ncccc34)n2)CN(CC(F)(F)F)C1 [Example 116, [3-(3-{7-[1-(piperidin-4-yl)-1H-pyrazol-4-yl]-1,6-naphthyridin-5-yl}-1H-pyrazol-1-yl)-1-(2,2,2-trifluoroethyl)azetidin-3-yl]acetonitrile]	1040	41	4420	54
CN1CCC(n2cc(-c3cc4ncccc4c(-c4ccn(C5(CC#N)CN(CC(F)(F)F)C5)n4)n3)cn2)CC1 [Example 117, [3-(3-{7-[1-(1-methylpiperidin-4-yl)-1H-pyrazol-4-yl]-1,6-naphthyridin-5-yl}-1H-pyrazol-1-yl)-1-(2,2,2-trifluoroethyl)azetidin-3-yl]acetonitrile]	1060	88	6960	64
CS(=O)(=O)N1CC(CC#N)(n2ccc(-c3nc(-c4cnn(C(F)(F)F)c4)cc4ncccc34)n2)C1 [Example 118, [1-(methylsulfonyl)-3-(3-{7-[1-(trifluoromethyl)-1H-pyrazol-4-yl]-1,6-naphthyridin-5-yl}-1H-pyrazol-1-yl)azetidin-3-yl]acetonitrile]	9060	843	> 10000	4160
N#CCC1(n2ccc(-c3nc(-c4cnn(C5COC5)c4)cc4ncccc34)n2)CN(CC(F)(F)F)C1 [Example 119, [3-(3-{7-[1-(oxetan-3-yl)-1H-pyrazol-4-yl]-1,6-naphthyridin-5-yl}-1H-pyrazol-1-yl)-1-(2,2,2-trifluoroethyl)azetidin-3-yl]acetonitrile]	976	29	8380	82
CS(=O)(=O)N1CC(CC#N)(n2ccc(-c3nc(-c4cnn(C5COC5)c4)cc4ncccc34)n2)C1 [Example 121, [1-(methylsulfonyl)-3-(3-{7-[1-(oxetan-3-yl)-1H-pyrazol-4-yl]-1,6-naphthyridin-5-yl}-1H-pyrazol-1-yl)azetidin-3-yl]acetonitrile]	1750	20	9590	101
